Source: US5691310A, “Methods of treatment using proANF peptides” (priority 1995, dated 1997)

Assays:
[1] = tested on: renal medullary Na+-K+-ATPase; assay: inhibition of renal medullary Na+-K+-ATPase activity; type: biochemical; conditions: for inhibition of renal medullary Na+-K+-ATPase activity: 10^-11 M
[2] = overcoming the negative ionotropic effect of Verapamil
[3] = tested on: human subjects with class II New York Heart Association congestive heart failure; assay: infusion into human subjects with congestive heart failure; type: in vivo; conditions: for diuretic properties (in words): congestive heart failure patients; for urine output increase at the end of the 60 minute infusion: congestive heart failure, 0.1 μg/kg body wt/minute; for increase of sodium excretion: human subjects with congestive heart failure
Description: Human proANF's 1-30, 31-67, 79-98, and 99-126 (i.e., ANF) were infused into human subjects with class II New York Heart Association congestive heart failure. An identical protocol to that used in example V where these peptides were infused into healthy human subjects was utilized. (See Attachment C for a detailed description of this protocol). The human subjects with congestive heart failure received an identical dose (0.1 μg/kg body wt/minute for 60 minutes) that the healthy human subjects received.

[4] = tested on: particulate guanylate cyclase; assay: particulate guanylate cyclase activity in the kidney; type: biochemical; conditions: 1 μM; whole kidney homogenates, renal cortical and medullary membranes, isolated distal nephron
Description: Testing is also carried out to determine biologic effects of these peptides by measuring their effects on particulate guanylate activity in the kidney.

porcine aorta = assay: vasodilation of porcine aortic strips preconstricted with 0.3 micromolar phenylephrine; set-up: species or system pig; conditions: for increase in cyclic GMP levels over baseline levels: associated with vasodilation of porcine aorta; for vasodilation: porcine aorta
Description: 30 Kg pigs are sacrificed, and aortic strips are harvested. The strips are attached to F-60 transducer (Narco-BioSystems, Houston, Tex.) and attached to a physiography (Narco-BioSystems) while being submerged in a muscle tissue bath comprising a Krebs Ringer solution at 37° C., with 95% 02 -5% CO2, bubbled through the bath. Percentage vasodilation is measured versus time (as reported in FIG. 1) after preconstriction with 0.3 micromolar phenylephrine.

Munich-Wistar rats = assay: rat clearance model (diuresis and salt excretion); type: in vivo
Description: The same three peptides and ANF from Example I are tested using the rat clearance model. Six control rats and six experimental Munich-Wistar rats, each weighing 150-200 grams, are used for each peptide, with catheters being placed in both jugular veins and in the femoral artery. The ureters are cannulated for simultaneous urine collections with femoral artery blood collections.
After inserting the catheters, a stabilization of one hour is allowed. A 10 μg/kg bolus of each of the respective human sequences of the peptides is given via the jugular vein to six experimental rats followed by a sustaining infusion of 0.1 μg/kg/min for 60 minutes. Blood and urine samples are collected at 20 minute intervals during this 60 minute infusion. In both the control and experimental animals, hematocrits and plasma sodium values remained at the same levels pre- and post-infusion while blood pressure decreased with each of these peptides (see Attachment B).

[5] = tested on: particulate guanylate cyclase; assay: cyclic GMP / particulate guanylate cyclase activation in cultured smooth muscle cells and porcine aorta; type: cell-based; conditions: cultured smooth muscle cells
healthy human subjects = assay: infusion into healthy human subjects; type: in vivo; conditions: healthy humans; for urine volume / urine flow (in words): 100 ng/kg body wt per minute for 1 hour i.v.; for sodium excretion compared to baseline (in words): 100 ng/kg body wt per minute for 60 minutes; for systolic and diastolic blood pressures: 100 ng/kg/min i.v. for 60 minutes
Description: Infusion of these peptides into healthy human subjects was performed as follows: Human pro-ANF 1-30, pro-ANF 31-67, and pro-ANF 79-98, and hANF (i.e., pro-ANF […], were synthesized by Peninsula Laboratories (Belmont, Calif.). High pressure liquid chromatography (HPLC) analysis was performed on a sample of each of the four peptides to ensure purity. The peptides were dissolved in a sterile 0.9% saline solution to a concentration of 100 μg/ml and dispensed in 2 and 5 ml aliquots into sealed sterile vials. At the time of dispensing, randomly selected vials were tested for pyrogens and sterility. Prior to labeling the vials, the actual peptide content of the dispensed solution were determined by direct radioimmunoassay to account for any possible absorption of the respective peptides to the walls of the vials. All vials were then stored at -80° C. until thawed for individual study.
Normal healthy subjects were chosen on the basis of age (between 20 and 50 years), physical examination and biochemical screenings. The subjects consumed their normal diets prior to testing. The subjects fasted overnight and were tested in the morning in the seated position. Intravenous catheters were placed bilaterally for the administration of pro-hANF 1-30, pro-hANF 31-67, pro-hANF 79-98 and hANF [pro-hANF 99-126] and for blood sampling. After completion of a 45-minute equilibration period, there were three 60-minute phases of the study: baseline, experimental infusion (60 minutes) and recovery (3 hours). The baseline phase consisted of two 30 minute urine collection periods, the experimental phase consisted of three 20 minute urine and plasma collection periods, and the recovery phase consisted of two 30 minute urine and plasma collection periods each hour for three hours post-infusion. Urine output was replaced on a milliliter per milliliter basis throughout the study by administering oral water or orange juice. Urine samples were obtained by voiding at the designated collection periods.
The 36 subjects were divided into 6 groups. One group (i.e., the control group) received a placebo infusion of 0.9% sodium chloride during the experimental infusion phase. […] The four remaining groups of six subjects each received human pro-hANF 1-30, pro-hANF 31-67, pro-hANF 79-98 and hANF. The four groups received the peptides by continuous infusion at the rate of 0.1 μg/kg per minute. The volume administered per hour during the experimental infusion phase was 10 ml for all four peptides and the placebo. All infusions were given by a constant-rate infusion pump, with the final concentrations of prohANFs adjusted for the subjects' body weight. The subjects heart rate and cuff blood pressure were taken at 5 minute intervals throughout the study. The excreted urine was analyzed for sodium concentration.

[6] = target: particulate guanylate cyclase of porcine aorta and cultured smooth muscle cells (porcine (aorta); not stated for the cultured smooth muscle cells)
[7] = tested on: rat or other vertebrate species; assay: biologic effects of peptides of the rat ANF prohormone; type: in vivo; conditions: peptides of the rat sequence, in the rat or other vertebrate species
Description: At first it was thought that only the C-terminus (i.e., ANF) of ANF prohormone circulated. Before any portion of the rest of the prohormone was known to circulate Dr. Frossman patented the whole rat prohormone which he called Cardiodilatin and portion(s) thereof (U.S. Pat. No. 4,751,284). In this patent Dr. Frossman patented the rat sequence of the ANF prohormone. In his patent he stated that parts of the whole prohormone had activity if the C-terminal end (i.e., ANF) was attached to it. In publications he has stated that the rest of the rat prohormone only has activity if the C-terminus (i.e., ANF with its intact ring structure) of the rat prohormone is attached to it (Frossman W.G., Contr. Nephrol. 50:1-13, 1986) (see Attachment A). Dr. Frossman has never published that other peptide(s) originating from the rat ANF prohormone that he patented have any biologic activity by themselves. Dr. Frossman has further stated on page 11 of Attachment A "I think that the 28 a.a. […] It has been over 10 years since Frossmann submitted his patent and he has never published that any portion of cardiodilatin (i.e., rat ANF prohormone) has any biologic activity if the respective portion is not attached to the ANF portion of cardiodilatin.

[8] = period A, control period (before peptide)
[9] = period B, 1st 60min experimental period, 10 μg/kg bolus then 0.1 μg/kg/min
[10] = period C, 2nd 60min experimental period

For `COc1ccc2cc([C@H](C)C(=O)O)ccc2c1` [Naproxen, reference compound], the “effect on the peptides' inhibition of renal medullary Na+-K+-ATPase” value ([1]; 0.5 mM) was “completely blocked each of these peptides'effects on renal medullary Na+-K+-ATPase”.

For “H-NPMYNAVSNADLMDFKNLLDHLEEKMPLED-OH [proANF 1-30, H-Asn-Pro-Met-Tyr-Asn-Ala-Val-Ser-Asn-Ala-Asp-Leu-Met-Asp-Phe-Lys-Asn-Leu- Leu-Asp-His-Leu-Glu-Glu-Lys-Met-Pro-Leu-Glu-Asp-OH]”, the “negative ionotropic (slowing heartbeat) effect of Verapamil” value [2] was “can overcome the negative ionotropic (slowing heartbeat) effect”, the “diuretic properties (in words)” value [3] was “stronger diuretic properties than ANF” and the “urine output increase at the end of the 60 minute infusion” value [3] was 3- to 6 fold. The “increase of sodium excretion” value [3] was “three-to-eight”, the “particulate guanylate cyclase activity” value [4] was “enhance particulate guanylate cyclase” and the “increase in cyclic GMP levels over baseline levels” value (porcine aorta) was “four-to-five”. For the same molecule, the vasodilation (porcine aorta) was “cause vasodilation”, the “inhibition of renal medullary Na+-K+-ATPase activity” value [1] was “Inhibition of renal medullary Na+-K+-ATPase activity” and the “UNa V, urinary sodium excretion rate” value (Munich-Wistar rats; [8]) was 36.37 ± 8.09 μeq-min^-1 -g kidney wt^-1. For the same molecule, the “UNa V, urinary sodium excretion rate” value (Munich-Wistar rats; [9]) was 224.30 ± 60.34 μeq-min^-1 -g kidney wt^-1, the “UNa V, urinary sodium excretion rate” value (Munich-Wistar rats; [10]) was 384.98 ± 124.39 μeq-min^-1 -g kidney wt^-1 and the “cyclic GMP levels” value [5] was “increase cyclic GMP levels”. The “increase of urine flow” value (healthy human subjects) was 4-12 fold, the “urine volume / urine flow (in words)” value (healthy human subjects) was “increase in urine volume” and the “sodium excretion compared to baseline (in words)” value (healthy human subjects) was “significantly (P<0.05) increased sodium excretion”. The “systolic and diastolic blood pressures” value (healthy human subjects) was “decreasing systolic and diastolic blood pressures”.

With “H-SSDRSALLKSKLRALLTAPR-OH [proANF 79-98, H-Ser-Ser-Asp-Arg-Ser-Ala-Leu-Leu-Lys-Ser-Lys-Leu-Arg-Ala-Leu-Leu-Thr-Ala- Pro-Arg-OH]” the “negative ionotropic (slowing heartbeat) effect of Verapamil” value [2] was “can overcome the negative ionotropic (slowing heartbeat) effect”, the “diuretic properties (in words)” value [3] was “stronger diuretic properties than ANF” and the “urine output increase at the end of the 60 minute infusion” value [3] was 3- to 6 fold. For the same molecule, the “increase of sodium excretion” value [3] was “no significant increase in sodium excretion”, the “particulate guanylate cyclase activity” value [4] was “enhance particulate guanylate cyclase” and the “increase in cyclic GMP levels over baseline levels” value (porcine aorta) was “four-to-five”. For the same molecule, the vasodilation (porcine aorta) was “cause vasodilation”, the “inhibition of renal medullary Na+-K+-ATPase activity” value [1] was “Inhibition of renal medullary Na+-K+-ATPase activity” and the “UNa V, urinary sodium excretion rate” value (Munich-Wistar rats; [8]) was 90.88 ± 77.76 μeq-min^-1 -g kidney wt^-1. The “UNa V, urinary sodium excretion rate” value (Munich-Wistar rats; [9]) was 363.98 ± 261.85 μeq-min^-1 -g kidney wt^-1, the “UNa V, urinary sodium excretion rate” value (Munich-Wistar rats; [10]) was 564.22 ± 315.48 μeq-min^-1 -g kidney wt^-1 and the “cyclic GMP levels” value [5] was “increase cyclic GMP levels”. The “increase of urine flow” value (healthy human subjects) was 4-12 fold, the “urine volume / urine flow (in words)” value (healthy human subjects) was “increase in urine volume” and the “sodium excretion compared to baseline (in words)” value (healthy human subjects) was “each of these respective peptides except proANF 79-98 significantly (P<0.05) increased sodium excretion”. The “systolic and diastolic blood pressures” value (healthy human subjects) was “decreasing systolic and diastolic blood pressures”.

With “angiotensin II [comparison peptide in the Na+-K+-ATPase test, reference compound]” the “inhibition of renal medullary Na+-K+-ATPase activity” value [1] was “Inhibition of renal medullary Na+-K+-ATPase activity”.

With “human atrial natriuretic factor (ANF) (from UniProt P01160) (peptide)” the half maximal activation (ED50) of guanylate cyclase activity [6] was 10 nM.

In the case of “rat proANF 1-30: peptide consisting of amino acids 1-30 from the rat ANF prohormone (NPVYSAVSNTDLMDFKNLLDHLEEKMPVED; UniProt P01161 25-54, looked up, fragment)”, the “biologic effect(s) (blood pressure lowering, sodium excretion or diuretic effects)” value [7] is reported as “no biologic effect(s)”.

With “rat proANF 31-67: peptide consisting of amino acids 31-67 from the rat ANF prohormone (EVMPPQALSEQTDEAGAALSSLSEVPPWTGEVNPSQR; UniProt P01161 55-91, looked up, fragment)” the “biologic effect(s) (blood pressure lowering, sodium excretion or diuretic effects)” value [7] was “no biologic effect(s)”.

With “rat proANF 79-98: peptide consisting of amino acids 79-98 from the rat ANF prohormone (PSDRSALLKSKLRALLAGPR; UniProt P01161 103-122, looked up, fragment)” the “biologic effect(s) (blood pressure lowering, sodium excretion or diuretic effects)” value [7] was “no biologic effect(s)”.

With H-SSDRSALLKSKLRALLTAPR-OH [human pro-ANF (79-98)] the half maximal activation (ED50) of guanylate cyclase activity [6] was 10 nM.
